Test results reported in ChEMBL document CHEMBL1143433, “Interaction of kendomycin and semi-synthetic analogues with the anti-apoptotic protein Bcl-xl” (Bioorg Med Chem Lett, 2008).
pIC50, pKd: −log10 of the molar value. In brackets after ≈: the same amount, converted by molar mass.

Key:
A549 = experiment: Cytotoxicity against human A549 cells; format: functional, cell-based
Bcl-2-like protein 1 [1] = target: T1, Bcl-2-like protein 1 (Homo sapiens, UniProt Q07817); experiment: Inhibition of interaction between GST-tagged Bcl-xl and Bak by fluorescence polarization assay; conditions: for pIC50: read-out: IC50
[2] = Chemical stability assessed as half life by HPLC; format: physicochemical
Bcl-2-like protein 1 [3] = target: T1, Bcl-2-like protein 1; experiment: Inhibition of interaction between Bcl-xl and Bak by surface plasmon resonance assay; conditions: for pKd: read-out: Kd
Bcl-2-like protein 1 [4] = target: T1, Bcl-2-like protein 1; experiment: Inhibition of interaction between GST-tagged Bcl-xl and Bak by surface plasmon resonance assay
HepG2 = experiment: Cytotoxicity against human HepG2 cells; format: functional
Staphylococcus aureus = experiment: Antibacterial activity against methicillin-resistant Staphylococcus aureus STA MU50; format: functional

T1 sequence (Q07817 whole entry): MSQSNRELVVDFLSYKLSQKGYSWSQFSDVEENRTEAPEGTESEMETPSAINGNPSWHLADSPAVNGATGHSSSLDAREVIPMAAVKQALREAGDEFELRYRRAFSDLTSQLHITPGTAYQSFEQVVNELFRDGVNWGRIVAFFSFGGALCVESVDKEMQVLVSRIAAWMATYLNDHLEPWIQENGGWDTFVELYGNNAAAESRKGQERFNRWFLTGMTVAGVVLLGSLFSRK

SMILES	Emax (Bcl-2-like protein 1 [1])	pIC50 (Bcl-2-like protein 1 [1])	half-life [2]	Kd (Bcl-2-like protein 1 [3])	IC50 (Bcl-2-like protein 1 [1])	pIC50 (A549)	pKd (Bcl-2-like protein 1 [4])	pKd (Bcl-2-like protein 1 [3])	GI50 (HepG2)	MIC (Staphylococcus aureus)
CC1=C2O[C@]34OC(C)(C)O[C@@H]3C2=C(C(=O)C1=O)[C@@H]1O[C@H](CC[C@H](C)/C=C(\C)C[C@@H](C)C[C@@H]4C)[C@H](C)[C@H](O)[C@H]1C	22%	5.02	< 39 h	–	–	4.85	–	–	–	–
CC1=C(O)C(=O)C2=C(C1=O)C(O)C(=O)[C@@H](C)C[C@H](C)C/C(C)=C/[C@@H](C)CC[C@H]1O[C@@H]2[C@H](C)[C@@H](O)[C@H]1C (some centres undefined)	35%	3.64	–	Not Active	–	4.60	1.97	–	–	–
Cc1cc2c(C(C)C)c(O)c(O)c(C=O)c2c(O)c1-c1c(C)cc2c(C(C)C)c(O)c(O)c(C=O)c2c1O [GOSSYPOL]	–	–	–	–	–	–	5.77	3.47	–	–
CO[C@@]12C=C3C(=C(C)C(=O)C(O)=C3[C@@H]3O[C@H](CC[C@H](C)/C=C(\C)C[C@@H](C)C[C@@H]1C)[C@H](C)[C@H](O)[C@H]3C)O2	–	–	–	–	Not Active	5.05	–	–	–	–
CC1=C2O[C@]3(O)C=C2C(=C(O)C1=O)[C@@H]1O[C@H](CC[C@H](C)/C=C(\C)C[C@@H](C)C[C@@H]3C)[C@H](C)[C@H](O)[C@H]1C [KENDOMYCIN]	70%	4.91	< 2 h	–	–	4.80	3.28	2.74	< 0.1 µM	3.9 µM (≈ 1.9 µg/mL)

Further lines, with some results ahead:

Emax (Bcl-2-like protein 1 [1])	pIC50 (Bcl-2-like protein 1 [1])	half-life [2]	Kd (Bcl-2-like protein 1 [3])	IC50 (Bcl-2-like protein 1 [1])	SMILES	pIC50 (A549)	pKd (Bcl-2-like protein 1 [4])	pKd (Bcl-2-like protein 1 [3])	GI50 (HepG2)	MIC (Staphylococcus aureus)
–	–	–	–	Not Active	CC1=C2O[C@]34OC5(CCCCC5)O[C@@H]3C2=C(C(=O)C1=O)[C@@H]1O[C@H](CC[C@H](C)/C=C(\C)C[C@@H](C)C[C@@H]4C)[C@H](C)[C@H](O)[C@H]1C	4.62	–	–	–	–
66%	5.30	< 23 h	–	–	CC1=C2O[C@]34OC5(CCN(C)CC5)O[C@@H]3C2=C(C(=O)C1=O)[C@@H]1O[C@H](CC[C@H](C)/C=C(\C)C[C@@H](C)C[C@@H]4C)[C@H](C)[C@H](O)[C@H]1C	4.85	3.42	3.40	–	–
